Assay results reported in US20260355184A1, “SMALL MOLECULE DEGRADERS OF HIV-1 TAT PROTEIN” (priority 2022, published 2026).
Like-named read-outs stand apart in the source and are kept apart here.

Key:
[1] = Cytotoxicity assay, Cell-Titer-Glo, HeLa-CD4-LTR-LacZ; conditions: human, hela-cd4-ltr-lacz cells
Experimental: (§1) Next, the activity of these leads against HIV infection was evaluated using the reporter cell line HeLa-CD4-LTR-LacZ, which stably expresses the β-galactosidase (β-Gal) gene under the control of the HIV 5′ LTR. The HIV NL4.3 strain was used for these studies and β-Gal activity was measured 72 hrs post infection (FIG. 3A). Cytotoxicity assays using Cell-Titer-Glo were performed in parallel to assess cell viability (FIG. 3A). […] Their anti-HIV activity was further assessed in acute replication of Jurkat T cells with the NL4.3 strain (FIG. 3A). […] These OM10.1 cells contain a single integrated wild-type provirus, while ACH-2 cells contain a single integrated provirus with a TAR mutation C37T, defective Tat-TAR feedback loop (FIG. 3B).

[2] = test system: HIV NL4.3 strain; test: HIV infectivity assay, reporter cell line HeLa-CD4-LTR-LacZ, β-Gal activity (Tat protein inhibition); assay type: cell-based, HIV-1 (NL4.3)
Experimental: as §1

[3] = Infectivity CC50, HeLa-CD4-LTR-LacZ, analogs of TT-44856 (Table 3)
[4] = Human immunodeficiency virus 1, read-out: Infectivity IC50, HeLa-CD4-LTR-LacZ, analogs of TT-44856 (Table 3)
[5] = Infectivity CC50, HeLa-CD4-LTR-LacZ, analogs of TT-44881 (Table 1)
[6] = Human immunodeficiency virus 1, read-out: Infectivity IC50, HeLa-CD4-LTR-LacZ, analogs of TT-44881 (Table 1)
[7] = Infectivity CC50, HeLa-CD4-LTR-LacZ, analogs of TT-44863 (Table 2)
[8] = Human immunodeficiency virus 1, read-out: Infectivity IC50, HeLa-CD4-LTR-LacZ, analogs of TT-44863 (Table 2)

Row | SMILES | CC50 [1, 5] | IC50 [2, 6] | CC50 [1, 7] | IC50 [2, 8] | also measured
1 | O=C(NCCCn1ccnc1)c1ccc(-n2cc(Br)cn2)cc1 [3-40] | – | – | – | – | CC50 [1, 3]: > 100 µM; IC50 [2, 4]: > 100 µM
2 | NS(=O)(=O)c1ccc(CCNC(=O)c2cn(-c3ccccc3)c3ccccc23)cc1 [compound 41799] | > 100 µM | 5 to 20 µM | – | – | –
3 | O=C(Cn1cc(C(F)(F)F)cc(Cl)c1=O)Nc1cccc(C(F)(F)F)c1 [compound 46748] | – | – | > 100 µM | > 100 µM | –
4 | O=C(NCCCn1ccnc1)C1c2ccccc2-c2ccccc21 [3-35] | – | – | – | – | CC50 [1, 3]: > 100 µM; IC50 [2, 4]: 50 to 100 µM
5 | CCOc1ccccc1NC(=O)Cn1cc(C(F)(F)F)cc(Cl)c1=O [compound 46604] | – | – | > 100 µM | > 100 µM | –
6 | CC(C(=O)NCCCn1cnc(CNC(=O)OCc2ccccc2)c1)(c1ccccc1)c1ccccc1 [3-64] | – | – | – | – | CC50 [1, 3]: 20 to 50 µM; IC50 [2, 4]: 10 to 30 µM
7 | O=C(NCCCN1CCCC1=O)c1ccn(-c2ccccc2)n1 [compound 45732] | > 100 µM | > 100 µM | – | – | –
8 | CC(C)(C)c1cn(-c2ccccc2)nc1C(=O)NCCCN1CCCC1=O [compound 47091] | 50 to 100 µM | > 100 µM | – | – | –
9 | COc1ccc(OC)c(NC(=O)Cn2cc(C(F)(F)F)cc(Cl)c2=O)c1 [compound 46868] | – | – | > 100 µM | > 100 µM | –
10 | CCCC(=O)NCc1cn(CCCNC(=O)C(C)(c2ccccc2)c2ccccc2)cn1 [3-62] | – | – | – | – | CC50 [1, 3]: > 100 µM; IC50 [2, 4]: > 100 µM
11 | CC(C(=O)NCCc1ccc(C(F)(F)F)cc1)(c1ccccc1)c1ccccc1 [3-45] | – | – | – | – | CC50 [1, 3]: 50 to 100 µM; IC50 [2, 4]: 10 to 20 µM
12 | O=C(c1nn(-c2ccccc2)c2c1CCC2)N1CCCC1 [compound 46607] | > 100 µM | > 100 µM | – | – | –
13 | N#Cc1c(NCCCN2CCCC2=O)c2ccccc2[nH]c1=O [compound 46822] | > 100 µM | > 100 µM | – | – | –
14 | COc1cc(C(F)(F)F)ccc1NC(=O)Cn1cc(C(F)(F)F)cc(Cl)c1=O [compound 46808] | – | – | > 100 µM | 1 to 30 µM | –
15 | CCOC(=O)c1c(NCCCN2CCCC2=O)c2ccccc2[nH]c1=O [compound 46823] | > 100 µM | > 100 µM | – | – | –
16 | CCC(C(=O)NCCCn1cnc2ccccc21)(c1ccccc1)c1ccccc1 [3-70] | – | – | – | – | CC50 [1, 3]: 50 to 100 µM; IC50 [2, 4]: 20 to 50 µM
17 | COc1ccc(C(F)(F)F)cc1NC(=O)C(C)n1cc(C(F)(F)F)cc(Cl)c1=O (stereo not shown) [compound 49] | – | – | > 100 µM | 1 to 20 µM | –
18 | O=C(Cn1cc(C(F)(F)F)cc(Cl)c1=O)Nc1cccc2c1OCCO2 [compound 46615] | – | – | > 100 µM | > 100 µM | –
19 | CC(NC(=O)C(C)(c1ccccc1)c1ccccc1)c1ccccc1 (stereo not shown) [3-47] | – | – | – | – | CC50 [1, 3]: > 100 µM; IC50 [2, 4]: 10 to 30 µM

Row | SMILES | CC50 [1, 5] | IC50 [2, 6] | CC50 [1, 7] | IC50 [2, 8] | also measured
20 | O=C1CCc2c(C(=O)NCCCN3CCCC3=O)nn(-c3ccccc3)c2C1 [GB-11] | > 100 µM | 10 to 20 µM | – | – | –
21 | COc1ccc(C(F)(F)F)cc1-c1noc(Cn2cc(C(F)(F)F)cc(Cl)c2=O)n1 [compound 47111] | – | – | > 100 µM | > 100 µM | –
22 | O=C(Cn1cc(C(F)(F)F)cc(Cl)c1=O)Nc1cc(C(F)(F)F)ccc1OCCN1CCOCC1 [compound 51] | – | – | 50 to 100 µM | 1 to 10 µM | –
23 | COc1ccc(C(F)(F)F)cc1NC(=O)Cn1cc(C(F)(F)F)cc(Br)c1=O [compound 47055] | – | – | 50 to 100 µM | 1 to 10 µM | –
24 | CCC(C(=O)NCCCn1ccnc1C)(c1ccccc1)c1ccccc1 [3-69] | – | – | – | – | CC50 [1, 3]: > 100 µM; IC50 [2, 4]: 1 to 10 µM
25 | O=C(O)c1ccc(C2(NC(=O)c3cn(-c4ccc(F)cc4)c4ccccc34)CC2)cc1 [compound 42097] | > 100 µM | > 100 µM | – | – | –
26 | O=C(NCCCN1CCCC1=O)c1cn(-c2ccccc2)c2ncc(F)cc12 [compound 46879] | > 100 µM | 1 to 50 µM | – | – | –
27 | CCCCOCCC(C(=O)NCCCn1ccnc1)(c1ccccc1)c1ccccc1 [3-75] | – | – | – | – | CC50 [1, 3]: > 100 µM; IC50 [2, 4]: 50 to 100 µM
28 | COc1ccc(C(F)(F)F)cc1NC(=O)Cn1cc(C)cc(Cl)c1=O [compound 46809] | – | – | > 100 µM | 1 to 10 µM | –
29 | COCCOc1ccc(C(F)(F)F)cc1NC(=O)Cn1cccc(F)c1=O [compound 46762] | – | – | > 100 µM | > 100 µM | –
30 | CCc1nccn1CCCNC(=O)C(C)(c1ccccc1)c1ccccc1 [3-56] | – | – | – | – | CC50 [1, 3]: > 100 µM; IC50 [2, 4]: 10 to 20 µM
31 | CCOc1ccccc1NC(=O)Cn1c(C)cc(COC)c(C#N)c1=O [compound 46602] | – | – | > 100 µM | > 100 µM | –
32 | COc1ccc(C(F)(F)F)cc1-c1noc(Cn2cc(C)cc(Cl)c2=O)n1 [compound 47198] | – | – | > 50 µM | > 50 µM | –
33 | O=C(NCCCn1ccnc1)c1cc2cccnc2[nH]1 [3-37] | – | – | – | – | CC50 [1, 3]: > 100 µM; IC50 [2, 4]: > 100 µM
34 | COc1ccc(NC(=O)Cn2cc(C(F)(F)F)cc(Cl)c2=O)cc1C(F)(F)F [compound 44] | – | – | > 100 µM | > 100 µM | –
35 | O=C(NCCCN1CCCC1=O)c1nc2ccccc2n1-c1ccccc1 [compound 47051] | > 25 µM | > 25 µM | – | – | –
36 | O=C(NCCCN1CCCC1=O)c1nn(-c2ccccc2)cc1F [compound 47010] | > 100 µM | > 100 µM | – | – | –
37 | COCCOc1ccccc1NC(=O)Cn1cccc(Cl)c1=O [compound 46631] | – | – | > 100 µM | > 100 µM | –
38 | O=C(NCCCN1CCCC1=O)c1cn(-c2ccccc2)c2ncccc12 [compound 46751] | > 100 µM | > 100 µM | – | – | –

Row | SMILES | CC50 [1, 5] | IC50 [2, 6] | CC50 [1, 7] | IC50 [2, 8] | also measured
39 | O=C(NCCCn1ccnc1)C1(O)c2ccccc2-c2ccccc21 [3-36] | – | – | – | – | CC50 [1]: > 100 µM; IC50 ([2]; Human immunodeficiency virus 1, read-out: Infectivity IC50): 20 to 50 µM
40 | Cc1nccn1CCCNC(=O)C(C)(c1ccccc1)c1ccccc1 [3-52] | – | – | – | – | CC50 [1, 3]: > 100 µM; IC50 [2, 4]: 1 to 10 µM
41 | O=C(Nc1ccccc1)c1c(NCCCN2CCCC2=O)c2ccccc2[nH]c1=O [compound 46827] | > 100 µM | > 100 µM | – | – | –
42 | COc1ccc(F)cc1NC(=O)Cn1cc(C(F)(F)F)cc(Cl)c1=O [compound 46867] | – | – | 50 to 100 µM | 10 to 30 µM | –
43 | COc1ccc(C)cc1NC(=O)Cn1cc(C(F)(F)F)cc(Cl)c1=O [compound 46689] | – | – | > 100 µM | > 100 µM | –
44 | COc1ccc(C(F)(F)F)cc1NC(=O)Cn1cc(F)cc(Cl)c1=O [compound 47006] | – | – | > 50 µM | > 50 µM | –
45 | CCOCCOCCOc1ccc(C(F)(F)F)cc1NC(=O)Cn1cc(C(F)(F)F)cc(Cl)c1=O [compound 55] | – | – | > 100 µM | 1 to 20 µM | –
46 | O=C(NCCCN1CCCC1=O)c1nn(-c2ccccc2)cc1C(F)(F)F [compound 46979] | > 100 µM | 50 to 100 µM | – | – | –
47 | O=C(NCCCn1ccnc1)c1cc(O)c2cc(Cl)ccc2n1 [3-38] | – | – | – | – | CC50 [1, 3]: > 100 µM; IC50 [2, 4]: > 100 µM
48 | O=C(NCCCN1CCCC1=O)c1nn(Cc2ccccc2)c2c1CCC2 [compound 46885] | > 100 µM | > 100 µM | – | – | –
49 | CCN(CC(=O)Nc1cc(C(F)(F)F)ccc1OCCOC)C(=O)Cc1ccccc1 [compound 45172] | – | – | ~80 µM | ~80 µM | –
50 | Cc1ccc(CC(=O)NCCCn2cnc3ccccc32)cc1 [Z102452176] | – | – | – | – | CC50 [1, 3]: > 100 µM; IC50 [2, 4]: 10 to 30 µM
51 | CC(C(=O)NCCCc1cccnc1)(c1ccccc1)c1ccccc1 [3-76] | – | – | – | – | CC50 [1, 3]: 10 to 30 µM; IC50 [2, 4]: 1 to 30 µM
52 | CCc1cc(C(=O)NCCCN2CCCC2=O)nn1-c1ccccc1 [GB-13] | > 100 µM | 10 to 20 µM | – | – | –
53 | COc1ccc(C(F)(F)F)cc1NC(=O)Cn1cccc(Cl)c1=O [compound 46763] | – | – | > 100 µM | 50 to 100 µM | –
54 | N#Cc1ccc(CNC(=O)c2cn(-c3ccccc3)c3ccccc23)cc1 [compound 41969] | > 100 µM | 12.4 µM | – | – | –
55 | COc1ccc(C#N)cc1NC(=O)Cn1cc(C)cc(Cl)c1=O [compound 46946] | – | – | > 50 µM | > 50 µM | –
56 | O=C(NCCCN1CCCC1=O)c1n[nH]c2c1CCC2 [compound 46727] | > 100 µM | > 100 µM | – | – | –
